Reference: patent publication US10450300B2, “Wnt signaling pathway inhibitors and therapeutic applications thereof” (Suzhou Yunxuan Yiyao Keji Youxian Gongsi, priority 2015, dated 2019)

Test system: Wnt pathway
Assay: Wnt pathway Super-top flash (STF) reporter gene assay (primary assay)
Type: cell-based
Details: HEK293 STF cells co-cultured 1:1 with L Wnt3A cells; 48 h incubation; inhibition of luminescence signaling
Experimental: The primary assay is based on Wnt pathway Super-top flash (STF) reporter gene assay:
HEK293 STF stable clones (HEK293 cells stably transfected with “Super-Top Flash” TCF-luciferase reporter plasmid) were kept in complete culture medium (DMEM with 4 mM L-Gln, 1.5 g/L sodium bicarbonate and 4.5 g/L glucose containing 6 μg/mL Blasticidin and 10% FBS). L Wnt3A cells (CRL-2647, ATCC) were kept in DMEM (Gibico) containing 10% FBS (Hyclone). HEK293 STF and L Wnt3A cells were harvested when 90% confluence and cell suspension was mixed with a fixed ratio of 1:1 (HEK293 STF: L Wnt3A). 100 μL/well of mixed cells suspension was added to the 96-well-plate with final cell concentration of 12,000 cells/well and then cultured for an additional 24 hours before adding compounds.
Compounds were diluted in DMSO in sequence and then diluted with DMEM medium. 20 μL medium containing compound was added to the cells according to the pre-setting dose. Cell plates were incubated at 37° C. for an additional 48 hours.
50 μL luciferase solution (Bright-Glo, Promega) was added to each well […] the 48 h incubation. The plates were incubated at room temperature for 5 min under gentle shaking. Luminescence signaling was measured with a plate reader (PHERAstar FS, BMG). The IC50 (potency) of compounds was calculated based on the inhibition of luminescence signaling.

Structure (SMILES)	IC50
Fc1c(NCc2ccc(-c3ccncc3)cc2)ncnc1-c1ccc2ccccc2c1 [Compound A-38]	5 nM
Cc1cc(-c2ncc(CNc3ncnc(N4Cc5cccnc5C4)c3F)cc2F)ccn1 [Compound A-88]	7.7 nM
Cc1cc(-c2ccc(CNc3ncnc(-c4ccc5cnccc5c4)c3F)cc2)ccn1 [Compound A-6]	4.7 nM
Cc1cc(-c2ccc(CNc3ncnc(N4CCc5c(Br)cccc5C4)c3F)cc2)ccn1 [Compound A-25]	> 1000 nM
N#Cc1ccc2nc(CNc3nccc(-c4ccc5ncccc5c4)c3F)ccc2c1 [Compound A-109]	10 nM
Cc1cc(-c2ccc(CNc3cc(-c4ccc5ccccc5c4)ncn3)cc2)ccn1 [Compound A-134]	24 nM
N#Cc1ccc(NCCNc2nsc(-c3ccc4ncccc4c3)n2)nc1 [Compound A-200]	25 nM
Cc1cc(-c2ccc(CNc3ccnc(N4CCc5ncccc5C4)n3)cc2)ccn1 [Compound A-158]	3000 nM
NC(=O)c1ccc2cc(CNc3ncnc(-c4ccc5ncccc5c4)c3F)ccc2c1 [Compound A-43, 6-((5-fluoro-6-(quinolin-6-yl)pyrimidin-4-ylamino)methyl)-2-naphthamide]	75 nM
Cc1cc(-c2ccc(CNc3ncnc(N4CCn5c(nnc5C(F)(F)F)C4)c3F)cc2)ccn1 [Compound A-59]	230 nM
N#Cc1ccc2cc(CNc3nccc(-c4ccc5ncccc5c4)n3)cnc2c1 [Compound A-177]	100 nM
Cc1cc(-c2ccc(CNc3ncnc(-c4ccc5ccncc5c4)c3F)cc2)ccn1 [Compound A-7]	7.4 nM
Cc1cc(-c2ncc(CNc3ncnc(NCc4cccnc4)c3F)cc2F)ccn1 [Compound A-82]	338 nM
Cc1cc(-c2ccc(CNc3ncnc(-c4ccc5c(cnn5C)c4)c3F)cc2)ccn1 [Compound A-15]	19 nM
Cc1cc(-c2ccc(CNc3cccc(-c4ccc5ccccc5c4)c3)cc2)ccn1 [Compound A-149]	603 nM
Cc1cc(-c2ccc(CNc3ccnc(-c4ccc5ccccc5c4)c3)cc2)ccn1 [Compound A-164]	3000 nM
Fc1c(NCc2ccc3cnccc3c2)ncnc1-c1ccc2ncccc2c1 [Compound A-41]	55 nM
Cc1cc(-c2ccc(CNc3ncnc(-c4ccc5ccccc5c4)c3C#N)cc2)ccn1 [Compound A-144]	40 nM
Cc1cc(-c2ccc(CNc3ccnc(-c4ccc5ccccc5c4)n3)cc2)ccn1 [Compound A-151]	2000 nM

Structure (SMILES)	IC50
CCNc1nc(NCc2ccc(-c3ccnc(C)c3)cc2)cc(-c2ccc3ccccc3c2)n1 [Compound A-142]	3000 nM
Cc1cc(-c2ccc(CNc3ncnc(-c4ccc5[nH]ncc5c4)c3F)cc2)ccn1 [Compound A-13]	99 nM
Cc1cc(-c2ccc(CNc3ncnc(N4CCc5ccccc5C4)c3F)cc2)ccn1 [Compound A-22]	14 nM
Cc1cc(-c2ncc(CNc3ncnc(-c4ccc5ccccc5c4)c3F)cc2F)ccn1 [Compound A-35]	4 nM
Cc1cc(-c2ccc(CNc3ncnc(-c4ccc5ccccc5c4)c3F)cn2)ccn1 [Compound A-30]	23 nM
Cc1cc(-c2ncc(CNc3ncnc(N4CCn5nnnc5C4)c3F)cc2F)ccn1 [Compound A-93]	40 nM
Cc1cc(-c2ccc(CNc3cccc(-c4ccc5ccccc5c4)n3)cc2)ccn1 [Compound A-150]	250 nM
Cc1cc(-c2ccc(CN(C)c3ncnc(-c4ccc5ccccc5c4)c3F)cc2)ccn1 [Compound A-27, 5-fluoro-N-methyl-N-(4-(2-methylpyridin-4-yl)benzyl)-6-(naphthalen-2-yl)pyrimidin-4-amine]	937 nM
O=S1(=O)CCN(c2ccc(CNc3nccc(-c4ccc5ncccc5c4)n3)cn2)CC1 [Compound A-180]	300 nM
Cc1cc(-c2ccc(CNc3ncnc(-c4cccc(Cl)c4)c3F)cc2)ccn1 [Compound A-19]	14 nM
Cc1cc(-c2ncc(CNc3ncnc(N4CCNC(=O)C4)c3F)cc2F)ccn1 [Compound A-80]	768 nM
Fc1c(NCc2ccc(-c3ccnnc3)cc2)ncnc1-c1ccc2ncccc2c1 [Compound A-67]	10 nM
Cc1cc(-c2ccc(CNc3cc(-c4ccc5ccccc5c4)nc(N4CCCC4)n3)cc2)ccn1 [Compound A-141]	3000 nM
Cc1cc(-c2ccc(CNc3ncnc(N4CCc5c(F)cccc5C4)c3F)cc2)ccn1 [Compound A-24]	37 nM
Cc1cc(-c2ccc(CNc3ncnc(N4Cc5ccccc5C4)c3F)cc2)ccn1 [Compound A-52]	17 nM
CS(=O)(=O)CCNc1ccc(CNc2nsc(-c3ccc4ncccc4c3)n2)cn1 [Compound A-189]	3000 nM
Cc1cc(-c2ncc(CNc3nccc(-c4ccc5ncccc5n4)c3O)cc2F)ccn1 [Compound A-176, 2-((3-fluoro-2′-methyl-2,4′-bipyridin-5-yl)methylamino)-4-(1,5-naphthyridin-2-yl)pyridin-3-ol]	18 nM
Cc1cc(-c2ncc(CNc3nccc(-c4cncc(F)c4)c3F)cc2F)ccn1 [Compound A-115]	7 nM

These reach a lower IC50. Values come first.

IC50	Structure (SMILES)
1.2 nM	Cc1cc(-c2ncc(CNc3ncnc(N4CCc5nccnc5C4)c3F)cc2F)ccn1 [Compound A-90]
0.5 nM	Cc1cc(-c2ncc(CNc3nccc(N4CCc5ncccc5C4)c3F)cc2F)ccn1 [Compound A-202, 4-(7,8-dihydro-1,6-naphthyridin-6(5H)-yl)-3-fluoro-N-((3-fluoro-2′-methyl-2,4′-bipyridin-5-yl)methyl)pyridin-2-amine]
0.24 nM	COc1cc(CNc2nccc(-c3ccc4ncccc4c3)c2F)cnc1-c1ccnc(C)c1 [Compound A-106]
0.74 nM	COc1cc(CNc2nccc(-c3ccc4ncccc4c3)n2)cnc1-c1ccnc(C)c1 [Compound A-175]
0.52 nM	N#Cc1ccc2cc(CNc3ncnc(-c4ccc5ncccc5c4)c3F)cnc2c1 [Compound A-75]
0.17 nM	N#Cc1ccc2cc(CNc3nsc(-c4ccc5ncccc5c4)n3)cnc2c1 [Compound A-199, 3-((5-(quinolin-6-yl)-1,2,4-thiadiazol-3-ylamino)methyl)quinoline-7-carbonitrile]
1 nM	Cc1cc(-c2ncc(CNc3nccc(-c4cc5cccnc5cn4)n3)cc2F)ccn1 [Compound A-184]
1.3 nM	Cc1cc(-c2ncc(CNc3ncnc(N4CCc5ncccc5C4)c3F)cn2)ccn1 [Compound A-61, 6-(7,8-dihydro-1,6-naphthyridin-6(5H)-yl)-5-fluoro-N-((2-(2-methylpyridin-4-yl)pyrimidin-5-yl)methyl)pyrimidin-4-amine]
1 nM	Cc1cc(-c2ncc(CNc3ncnc(-c4ccc5ncsc5c4)c3F)cc2C)ccn1 [Compound A-51]
1.3 nM	N#Cc1ccc2cc(CNc3ncnc(N4CCc5ncccc5C4)c3F)cnc2c1 [Compound A-76]
0.11 nM	Cc1cc(-c2ncc(CNc3nccc(-c4ccc5ncccc5c4)c3F)cc2C#N)ccn1 [Compound A-99]
2.7 nM	Cc1cc(-c2cnc(CNc3nccc(-c4ccc5ncccc5c4)n3)cn2)ccn1 [Compound A-174]
0.94 nM	Cc1cc(-c2ccc(CNc3ncnc(N4CCc5ncsc5C4)c3F)cc2)ccn1 [Compound A-47]
0.4 nM	COc1cncc(-c2ccnc(NCc3cnc(-c4ccnc(C)c4)c(C#N)c3)c2F)c1 [Compound A-129]
0.12 nM	Cc1cc(-c2ncc(CNc3nccc(-c4cc5cccnc5cn4)c3F)cc2F)ccn1 [Compound A-103]
0.34 nM	Cc1cc(-c2ccnc(NCc3cnc(-c4ccnc(C)c4)c(C#N)c3)c2F)ccn1 [Compound A-127]
0.29 nM	N#Cc1cnc2cc(CNc3ncnc(-c4ccc5ncccc5c4)c3F)ccc2c1 [Compound A-71]
0.25 nM	Cc1cncc(-c2ccnc(NCc3cnc(-c4ccnc(C)c4)c(C#N)c3)c2F)c1 [Compound A-132]
0.8 nM	Cc1cc(-c2ncc(CNc3ncnc(N4CCn5nccc5C4)c3F)cc2C#N)ccn1 [Compound A-201]
0.09 nM	Cc1cc(-c2ncc(CNc3nsc(-c4ccc5ncccc5c4)n3)cc2C#N)ccn1 [Compound A-194]
0.18 nM	Cc1cc(-c2ccc(CNc3nccc(-c4ccc5ncccc5c4)c3F)cc2)ccn1 [Compound A-97]
1 nM	N#Cc1ccc2cc(CNc3ncnc(N4CCc5ncccc5C4)c3F)ccc2c1 [Compound A-44]
0.2 nM	Cc1cc(-c2ncc(CNc3nccc(-c4ccn5nccc5n4)c3F)cc2C#N)ccn1 [Compound A-96]
